Data set [1] relates to PC3 cells. In words: cells. As to conditions: Homo sapiens, PC-3, 2 h, read-out: PC3 2 hr IC50 (±SD).
Description: (§1) The cytotoxicity of the peptides on the prostate cancer derived cell lines DU145 and PC3 was tested as previously described (Morgan et al. 2014, ibid), using the MTT assay for metabolic activity. The cytotoxic drug Docetaxel (a standard chemotherapeutic drug) was included as a positive control.
(§2) Doses are in μM (micromoles), and the mean value from 3 experiments is given along with the standard deviation.
In a further data set the target is T1, HOXB4/PBX2 dimers (Homo sapiens, UniProt P40425).
T1 construct: endogenous in cells; host or cells: MDA-MB-231
T1 sequence (P40425 1-430): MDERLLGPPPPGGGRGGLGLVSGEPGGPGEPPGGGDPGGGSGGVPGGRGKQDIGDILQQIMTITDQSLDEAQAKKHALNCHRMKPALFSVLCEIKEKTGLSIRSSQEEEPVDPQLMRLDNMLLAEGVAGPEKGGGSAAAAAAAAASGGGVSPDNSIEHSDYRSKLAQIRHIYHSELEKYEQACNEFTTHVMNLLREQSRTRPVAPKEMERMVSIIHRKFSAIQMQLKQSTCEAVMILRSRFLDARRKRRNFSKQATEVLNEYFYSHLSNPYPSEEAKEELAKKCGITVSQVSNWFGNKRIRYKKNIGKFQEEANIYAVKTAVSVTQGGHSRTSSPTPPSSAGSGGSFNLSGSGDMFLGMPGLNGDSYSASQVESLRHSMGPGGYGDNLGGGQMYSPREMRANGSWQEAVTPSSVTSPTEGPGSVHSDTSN
In words: Cell based ELISA assay for HOX/PBX binding. As to conditions: MDA-MB-231 cells, 4 hours, compared to DMSO, SEM, read-out: % inhibition of HOXB4/PBX2 dimer formation. As for the experimental part:
In order to directly assess the ability of each peptide to disrupt HOX/PBX binding a cell-based assay system was developed that could allow the formation of HOX/PBX/DNA dimers. Cultured MDA-MB-231 cells were treated with 10 μM of each peptide for 4 hours and then used to generate a cell lysate using a standard preparation method as described below. HOXB4/PBX2 dimers were then measured using an ELISA-based system as detailed in the table below. The values from this assay are expressed as % inhibition of dimer formation compared to a negative control (DMSO).
1. Collect approximately 5.0×10^7 cells by low-speed centrifugation at RT for 5 min. Carefully remove culture medium.
2. Wash the cellular debris (pellet) with PBS at RT, and collect by low-speed centrifugation. Carefully remove supernatant (total protein).
3. Add 1.0 ml of pre-cold RIPA buffer (or other appropriate buffer) with freshly added (Protease Inhibitors) and/or (Phosphatase Inhibitors). Gently resuspend cells in RIPA buffer with a pipet and incubate on ice for 30 min.
4. Further disrupt and homogenize cells by passing through a 21-gauge needle, dounce homogenization or sonication, taking care not to raise the temperature of the lysate. (Optional: Add 10 μl of 10 mg/ml PMSF stock) Incubate 30 min on ice.
5. Transfer to microcentrifuge tube(s) and centrifuge at 10,000×g for 10 min at 4° C. […]

Data set [2] in a line: Body weight of PC3 tumour bearing mice. Type of data set: in vivo. As to conditions: intratumoural. As for the experimental part:
PC3 cells were injected subcutaneously into female or male Balb-c nude mice aged 6 to 12 weeks (Harlan, UK). When the tumour size reached 100 mm^3 mice were injected intratumouraly with PBS, HXR9 or HTL001 at the intervals shown in FIG. 3. Mice were sacrificed when the tumour size reached 1000 mm^3 or at the end of the experiment (36 days). Tumours were then excised and immersed in 10% formalin for 24 h and processed for paraffin embedding. 5 μm slices of xenografts in paraffin blocks were made using microtome and different proteins detected by immunohistochemistry.

In data set [3] the test system is PC3 cells. Particulars: for PC3 2 hr IC50 change relative to HXR9: fold difference in IC50 relative to HXR9, 2 hr; for PC3 96 hr IC50 change relative to HXR9: fold difference in IC50 relative to HXR9, 96 hr.
Description: as §1, §2
The mark [4] stands for this setting: read-out: PC3 2 hr IC50 (±SD), PC3 cells, 2 hr, MTT, mean of 3 experiments ± SD.
[5] abbreviates: read-out: PC3 96 hr IC50 (±SD), PC3 cells, 96 hr, MTT, mean of 3 experiments ± SD.

Like-named read-outs stand apart in the source and are kept apart here. Where no end group is shown, it is not given here.

`CC(=O)O[C@@]12CO[C@@H]1C[C@H](O)[C@@]1(C)C(=O)[C@H](O)C3=C(C)[C@@H](OC(=O)[C@H](O)[C@@H](NC(=O)OC(C)(C)C)c4ccccc4)C[C@@](O)([C@@H](OC(=O)c4ccccc4)[C@H]21)C3(C)C` [Docetaxel]: in the data set on PC3 cells [1], the IC50 worked out at 4 µM.
Take “WYKWMKKAARRRRRRRRR [HTL001, WYKWMKKAARRRRRRRRR]”: the inhibition at 10 µM at HOXB4/PBX2 dimers was 28.2%. The “Maximum % weight loss” value in data set [2] is recorded as 0%.
For the compound WYKWMKKHHRRRRRRRRR [HXR9KS3], the “PC3 2 hr IC50 change relative to HXR9” value in the data set with PC3 cells [3] stood at 1.53 fold. Besides, in the data set on PC3 cells [3], the “PC3 96 hr IC50 change relative to HXR9” value is 2.53 fold. Besides, the IC50 is 19 µM in the data set with PC3 cells [3] (setting [4]) and 17 µM with PC3 cells [3] (setting [5]).
In the same order, the values of WYKWMKKRRRRRRRRR [HXR9KS3noH] are 1.32 fold, 2.05 fold, 22 µM and 21 µM.
For the compound “WYPAMKKHHRRRRRRRRR [CXR9, WYPAMKKHHRRRRRRRRR]”, the IC50 in the data set on PC3 cells [3] (2 h) and with PC3 cells [3] (96 h) was over 80 µM throughout.
As for WYPWMKKAARRRRRRRRR [HXR9AS7], in the data set with PC3 cells [3], the “PC3 2 hr IC50 change relative to HXR9” value is on record as 0.64 fold and the “PC3 96 hr IC50 change relative to HXR9” value is 1.08 fold. Besides, the IC50 with PC3 cells [3] (setting [4]) came out at 45 µM. Besides, in the data set on PC3 cells [3] (setting [5]), the IC50 is 40 µM.
For “WYPWMKKHHRRRRRRRRR [HXR9, WYPWMKKHHRRRRRRRRR]”, the “Maximum % weight loss” value in data set [2] is on record as 0%.
Regarding WYPWMKKRRRRRRRRR [HXR9noH], in the data set with PC3 cells [3], the “PC3 2 hr IC50 change relative to HXR9” value is listed as 0.48 fold and the “PC3 96 hr IC50 change relative to HXR9” value amounted to 0.80 fold. Also, the IC50 with PC3 cells [3] (setting [4]) worked out at 60 µM. Further, the IC50 in the data set on PC3 cells [3] (setting [5]) is 54 µM.
